A short description of the data set: on-resin lactamisation, Asp side-chain COOH (C-terminal residue, anchored via Rink amide) + alpha-NH2 of N-terminal Dap(Boc); HATU/DIEA 1.05:2.1 equiv, overnight; then TFA cleavage. The conditions noted are these: 22-membered ring, NMP, 57.0 mM; for ring closure, product found: scale: 1 = cyclic product is largest ESI-MS signal, 0 = linear; for ring closure, conversion by HPLC: scale: % crude HPLC purity, 320 nm area of tallest peak or peak cluster.

The mark [1] stands for this setting: from CC(C)(C)OC(=O)NC[C@H](N)C(=O)N[C@@H](CNC(=O)c1cnc2ccccc2n1)C(=O)N[C@@H](CNC(=O)c1cnc2ccccc2n1)C(=O)N[C@@H](CNC(=O)c1cnc2ccccc2n1)C(=O)NCC(=O)NCC(=O)N[C@@H](CC(=O)O)C(N)=O.
The mark [2] stands for this setting: from CC(C)(C)OC(=O)NC[C@H](N)C(=O)NCC(=O)N[C@@H](CNC(=O)c1cnc2ccccc2n1)C(=O)N[C@@H](CNC(=O)c1cnc2ccccc2n1)C(=O)NCC(=O)NCC(=O)N[C@@H](CC(=O)O)C(N)=O.
[3] abbreviates: from CC(C)(C)OC(=O)NC[C@H](N)C(=O)N[C@@H](CNC(=O)c1cnc2ccccc2n1)C(=O)NCC(=O)N[C@@H](CNC(=O)c1cnc2ccccc2n1)C(=O)N[C@@H](CNC(=O)c1cnc2ccccc2n1)C(=O)NCC(=O)N[C@@H](CC(=O)O)C(N)=O.
Setting [4] is: from CC(C)(C)OC(=O)NC[C@H](N)C(=O)N[C@@H](CNC(=O)c1cnc2ccccc2n1)C(=O)NCC(=O)N[C@@H](CNC(=O)c1cnc2ccccc2n1)C(=O)NCC(=O)N[C@@H](CNC(=O)c1cnc2ccccc2n1)C(=O)N[C@@H](CC(=O)O)C(N)=O.
Setting [5] is: from CC(C)(C)OC(=O)NC[C@H](N)C(=O)NCC(=O)NCC(=O)N[C@@H](CNC(=O)c1cnc2ccccc2n1)C(=O)NCC(=O)NCC(=O)N[C@@H](CC(=O)O)C(N)=O.
Setting [6] is: from CC(C)(C)OC(=O)NC[C@H](N)C(=O)N[C@@H](CNC(=O)c1cnc2ccccc2n1)C(=O)NCC(=O)NCC(=O)NCC(=O)N[C@@H](CNC(=O)c1cnc2ccccc2n1)C(=O)N[C@@H](CC(=O)O)C(N)=O.
Setting [7] is: from CC(C)(C)OC(=O)NC[C@H](N)C(=O)NCC(=O)N[C@@H](CNC(=O)c1cnc2ccccc2n1)C(=O)N[C@@H](CNC(=O)c1cnc2ccccc2n1)C(=O)N[C@@H](CNC(=O)c1cnc2ccccc2n1)C(=O)NCC(=O)N[C@@H](CC(=O)O)C(N)=O.
The mark [8] stands for this setting: from CC(C)(C)OC(=O)NC[C@H](N)C(=O)N[C@@H](CNC(=O)c1cnc2ccccc2n1)C(=O)NCC(=O)N[C@@H](CNC(=O)c1cnc2ccccc2n1)C(=O)NCC(=O)NCC(=O)N[C@@H](CC(=O)O)C(N)=O.
Where [9] appears, read: from CC(C)(C)OC(=O)NC[C@H](N)C(=O)NCC(=O)NCC(=O)N[C@@H](CNC(=O)c1cnc2ccccc2n1)C(=O)N[C@@H](CNC(=O)c1cnc2ccccc2n1)C(=O)N[C@@H](CNC(=O)c1cnc2ccccc2n1)C(=O)N[C@@H](CC(=O)O)C(N)=O.
The mark [10] stands for this setting: from CC(C)(C)OC(=O)NC[C@H](N)C(=O)N[C@@H](CNC(=O)c1cnc2ccccc2n1)C(=O)NCC(=O)NCC(=O)N[C@@H](CNC(=O)c1cnc2ccccc2n1)C(=O)NCC(=O)N[C@@H](CC(=O)O)C(N)=O.
[11] abbreviates: from CC(C)(C)OC(=O)NC[C@H](N)C(=O)NCC(=O)NCC(=O)N[C@@H](CNC(=O)c1cnc2ccccc2n1)C(=O)NCC(=O)N[C@@H](CNC(=O)c1cnc2ccccc2n1)C(=O)N[C@@H](CC(=O)O)C(N)=O.

Where only a bound is given, the exact number is not on record here.

In the case of `NC[C@@H]1NC(=O)C[C@@H](C(N)=O)NC(=O)CNC(=O)CNC(=O)[C@H](CNC(=O)c2cnc3ccccc3n2)NC(=O)[C@H](CNC(=O)c2cnc3ccccc3n2)NC(=O)[C@H](CNC(=O)c2cnc3ccccc3n2)NC1=O`, under setting [1], the ring closure, product found is 1 and the ring closure, conversion by HPLC turned out to be 25.

As for `NC[C@@H]1NC(=O)C[C@@H](C(N)=O)NC(=O)CNC(=O)CNC(=O)[C@H](CNC(=O)c2cnc3ccccc3n2)NC(=O)[C@H](CNC(=O)c2cnc3ccccc3n2)NC(=O)CNC1=O`, under setting [2], the ring closure, product found stood at 1 and the ring closure, conversion by HPLC came out at 69.

As to `NC[C@@H]1NC(=O)C[C@@H](C(N)=O)NC(=O)CNC(=O)[C@H](CNC(=O)c2cnc3ccccc3n2)NC(=O)[C@H](CNC(=O)c2cnc3ccccc3n2)NC(=O)CNC(=O)[C@H](CNC(=O)c2cnc3ccccc3n2)NC1=O`, under setting [3], the ring closure, product found was 1 and the ring closure, conversion by HPLC was determined as 81.

Take `NC[C@@H]1NC(=O)C[C@@H](C(N)=O)NC(=O)[C@H](CNC(=O)c2cnc3ccccc3n2)NC(=O)CNC(=O)[C@H](CNC(=O)c2cnc3ccccc3n2)NC(=O)CNC(=O)[C@H](CNC(=O)c2cnc3ccccc3n2)NC1=O`: under setting [4], the ring closure, product found amounted to 1 and the ring closure, conversion by HPLC worked out at 24.

For the compound `NC[C@@H]1NC(=O)C[C@@H](C(N)=O)NC(=O)CNC(=O)CNC(=O)[C@H](CNC(=O)c2cnc3ccccc3n2)NC(=O)CNC(=O)CNC1=O` [H-Dap(Boc)-Gly-Gly-Dap(Qxc)-Gly-Gly-Asp(OH)-NH-Rink resin], under setting [5], the ring closure, product found turned out to be 1 and the ring closure, conversion by HPLC was determined as 84.

In the case of `NC[C@@H]1NC(=O)C[C@@H](C(N)=O)NC(=O)[C@H](CNC(=O)c2cnc3ccccc3n2)NC(=O)CNC(=O)CNC(=O)CNC(=O)[C@H](CNC(=O)c2cnc3ccccc3n2)NC1=O`, under setting [6], the ring closure, product found is 1 and the ring closure, conversion by HPLC is 64.

Turning to `NC[C@@H]1NC(=O)C[C@@H](C(N)=O)NC(=O)CNC(=O)[C@H](CNC(=O)c2cnc3ccccc3n2)NC(=O)[C@H](CNC(=O)c2cnc3ccccc3n2)NC(=O)[C@H](CNC(=O)c2cnc3ccccc3n2)NC(=O)CNC1=O`, under setting [7], the ring closure, product found came out at 1 and the ring closure, conversion by HPLC came out at 79.

For the compound `NC[C@@H]1NC(=O)C[C@@H](C(N)=O)NC(=O)CNC(=O)CNC(=O)[C@H](CNC(=O)c2cnc3ccccc3n2)NC(=O)CNC(=O)[C@H](CNC(=O)c2cnc3ccccc3n2)NC1=O`, under setting [8], the ring closure, product found was 1 and the ring closure, conversion by HPLC was found to be 39.

With `NC[C@@H]1NC(=O)C[C@@H](C(N)=O)NC(=O)[C@H](CNC(=O)c2cnc3ccccc3n2)NC(=O)[C@H](CNC(=O)c2cnc3ccccc3n2)NC(=O)[C@H](CNC(=O)c2cnc3ccccc3n2)NC(=O)CNC(=O)CNC1=O`, under setting [9], the ring closure, product found stood at 0 and the ring closure, conversion by HPLC was below 48.

As to `NC[C@@H]1NC(=O)C[C@@H](C(N)=O)NC(=O)CNC(=O)[C@H](CNC(=O)c2cnc3ccccc3n2)NC(=O)CNC(=O)CNC(=O)[C@H](CNC(=O)c2cnc3ccccc3n2)NC1=O`, under setting [10], the ring closure, product found was 1 and the ring closure, conversion by HPLC was 53.

For the compound `NC[C@@H]1NC(=O)C[C@@H](C(N)=O)NC(=O)[C@H](CNC(=O)c2cnc3ccccc3n2)NC(=O)CNC(=O)[C@H](CNC(=O)c2cnc3ccccc3n2)NC(=O)CNC(=O)CNC1=O`, under setting [11], the ring closure, product found was found to be 1 and the ring closure, conversion by HPLC stood at 76.

The values are drawn from article PMC6208650.
